Experimental data taken from patent US6605619B1, “Nitroxides as protectors against oxidatives stress” (The United States of America as represented by the …, priority 1992, dated 2003).
“Also recorded” adds a separate entry of the source. Marks after values point to notes of the source that are not given here.

How the values were obtained:
[1] = tested on: Chinese hamster V79 cells; assay: Protection of cells exposed to H2O2 under hypoxic conditions; format: cell-based; conditions: 600 μM H2O2, 1 h, 37° C.
Description: Some studies required exposure to H2O2 under hypoxic conditions. For these studies, cells dispersed in 1.8 ml of medium were plated into specially designed glass flasks (Russo et al, Radiat. Res., 103, 232-239, 1985). The flasks were sealed with soft rubber stoppers, and 19-gauge needles were pushed through to act as entrance and exit ports for a humidified gas mixture of 95% nitrogen/5% CO2 (Matheson Gas Products). […] Stoppered flasks were connected in series and mounted on a reciprocating platform and gassed at 37° C. for 45 min. […] After 45 min of gassing, the hypoxic H2O2 solution was added to the cell monolayer culture. The cells were exposed to H2O2 for 1 h under hypoxic conditions. N2 gas flow was maintained during the H2O2 exposure. In parallel flasks, DF and CHD were added as described above, and were present during the entire gassing procedure. Following treatment, cell survival was assessed as described above.

[2] = tested on: Chinese hamster V79 cells; assay: Protection of cells exposed to HX/XO, clonogenic survival; format: cell-based; conditions: for cell survival / protection from HX/XO: 0.05 U/ml XO + 0.5 mM HX, 37° C., 5 mM nitroxide, 100 U/ml catalase, SOD, 500 μM DF preincubated 2 h
Description: (§1) Chinese hamster V79 cells were grown in F12 medium supplemented with 10% fetal calf serum, penicillin, and streptomycin. Survival was assessed in all studies by the clonogenic assay. The plating efficiency range between 80-90%. Stock cultures of exponentially growing cells were trypsinized, rinsed, and plated (5×10^5 cells/dish) into a number of 100 mm petri dishes and incubated 16 h at 37° C. prior to experimental protocols. Cells were exposed for 1 h at 37° C. to either 0.5 mM hypoxanthine (HX)+0.05 U/ml of xanthine oxidase (XO) for varying lengths of time, or to H2O2 at different concentrations. To assess possible modulation in cytotoxicity, catalase, 100 U/ml; SOD, 100 μg/ml; DF, 500 μM; and 5 mM of each of the nitroxides from Table 1 were added to parallel cultures. CHD was prepared in a stock solution in ethanol and diluted into medium such that the final concentration was 5 mM. […] TEMPOL is water soluble and was prepared directly in tissue culture medium. […] DF was added either 2 h prior to or during treatment while the other agents were present only during HX/XO or H2O2 treatment. Following treatment, cells were rinsed, trypsinized, counted, and plated for macroscopic colony formation. For each dose determination cells were plated in triplicate and the experiments were repeated a minimum of two times. Plates were incubated 7 days, after which colonies were fixed with methanol/acetic acid, stained with crystal violet, and counted. Colonies containing >50 cells were scored. Error bars represent S.D. of the mean and are shown when larger than the symbol.

[3] = EPR signal of nitroxides exposed to O2 flux formed by HX/XO (spin-loss); format: biochemical; conditions: for Steady state EPR signal (%): % from total R′RNO + R′RNOH after exposure to 5 mM HX + 0.03 U/ml XO in air-saturated PBS pH 7.2; for effect of O2 on the EPR signal: exposure to O2 flux formed by HX/XO
Description: For EPR experiments, samples (0.05-0.1 ml) either of solutions of chemicals or cell suspensions were drawn by a syringe into a gas-permeable teflon capillary of 0.8 mm inner diameter, 0.05 mm wall thickness (Zeus Industrial Products, Inc. Raritan, N.J.). Each capillary was folded twice, inserted into a narrow quartz tube which was open at both ends (2.5 mm ID), and then placed horizontally into the EPR cavity. During the experiments, gases of desired compositions were blown around the sample without having to disturb the alignment of the tube within the EPR cavity. EPR spectra were recorded in a Varian E4 (or E9) X-band spectrometer, with field set at 3357 G, modulation frequency of 100 KHz, modulation amplitude of 1 G and non-saturating microwave power. The EPR spectrometer was interfaced to an IBM-PC through an analog-to-digital converter and a data translation hardware (DT2801) and the spectra were digitized using commercial acquisition software, enabling subtraction of background signals. To study the kinetics of the spin-loss, the spectra were deliberately overmodulated, and the magnetic field was kept constant while the intensity of the EPR signal was followed.

[4] = Water/octanol partition of nitroxides, ratio determined by EPR; format: physicochemical; conditions: Octanol:water
Source text: CHD, 2-spirocyclohexane doxyl(2-spirocyclohexane-5,5-dimethyl-3-oxazolidinoxyl) and OXANO, 2-ethyl-2,5,5-trimethyl-3-oxazolidine-1-oxyl as well as other nitroxides were synthesized as described by Keana et al (J. Am. Chem. Soc., 89, 3055-3056, 1967) For the general synthesis of the cyclic amines, the appropriate starting ketone was reacted with 2-amino-2-methyl-1-propanol in benzene in the presence of catalytic amounts of p-toluene sulfonic acid. As the cyclic structure formed, water was eliminated. The volume of water collected in a Dean Stark apparatus was monitored and used to gauge the reaction progress. The amines thus produced were purified through fractional distillation under reduced pressure, characterized by 220 MHz ^1H NMR, IR, UV, either EI or CI mass spectroscopy, and subsequently oxidized to the corresponding nitroxides using m-chloroperbenzoic acid. The nitroxides were purified by silica flash chromatography (Still et al, J. Org. Chem., 43, 2923-2925, 1978). Water/octanol ratios were determined by placing a quantity of nitroxide in water+octanol within a separatory funnel. The mixture was shaken thoroughly and allowed to separate for 15 min, whereupon aliquots were taken from both fractions and the ratio of nitroxide distribution was determined using electron paramagnetic resonance (EPR) spectroscopy, by comparing the intensities of signal obtained under N2.

[5] = SOD-inhibitable ferricytochrome c reduction assay, rate constants of reaction with O2 (SOD-like activity); format: biochemical; conditions: low ionic strength (10 mM HEPES), pH 7.0, 22° C.
Source text: As a further check, the reaction of representatives of both 5- and 6-membered cyclic nitroxides with O2 was studied. The SOD-inhibitable ferricytochrome c reduction assay (Fridovich, Handbook of Methods for Oxygen Radical Research, 213-215, 1985) was used to determine rate constants of reaction with O2. […] The reaction was started by adding 0.01 U/ml XO and the rate of ferricytochrome c reduction, in the absence (V) and in the presence (v) of various nitroxides, was spectrophotometrically followed at 550 nm. Both reference and sample cuvettes contained all the reagents, with the reference cuvette containing 100 units/ml SOD, thereby eliminating spurious reactions from interfering with the determination of rate constants. Data were analyzed by plotting V/v as a function of [nitroxide] and k1 was calculated, knowing kCytC+superoxide, according to:
(V/v)−1=k1x[nitroxide]/kCytC+superoxidex[Cyt−c^III].

C3H mice [6] = assay: Nitroxide-induced weight loss, chronic oral administration in drinking water; format: in vivo; conditions: 10 mg per ml in drinking water
Source text: Thus, nitroxide given over extended periods appears to cause weight loss in animals.

[7] = tested on: Chinese hamster V79 cells; assay: Protection of cells exposed to H2O2, clonogenic survival; format: cell-based; conditions: H2O2 for 1 h, 37° C., full medium; 5 mM nitroxide; 100 U/ml catalase; 100 μg/ml SOD; 500 μM DF preincubated 2 h
Description: as §1, with “For each dose determination cells were plated in triplicate and the experiments were repeated a minimum of two times.” left out, “Error bars represent S.D. of the mean and are shown when larger than the symbol.” left out

DNA-Fe(II) = assay: Reaction of nitroxide with DNA-Fe(II), EPR spin-loss and OD353nm; format: biochemical, Salmon; conditions: TEMPOL hypoxically mixed with DNA-Fe(II)
Description: All solutions always contained 0.1 mg/ml Salmon DNA. The appearance of DNA-Fe(III) was spectrophotometrically monitored at 353 nm, whereas the spin-loss of CHD was monitored by following its EPR signal. To study the time-dependence of ΔOD353nm (∘), 1 mM CHD was mixed with 0.1 mM Fe(II). To follow the spin-loss of CHD (□), 1 mM Fe(II) was mixed with 0.1 mM CHD.
It was also questioned whether the aerobic and hypoxic protection by CHD to H2O2 exposure was a result of CHD directly accepting electrons from ferrous ions, thereby preventing generation of .OH. Because cellular iron is chelated, the possible reaction of nitroxide with chelated iron(II) was examined by repeating the experiment in the presence of DNA. To study the possibility of nitroxide-induced oxidation of transition metals, CHD was hypoxically mixed with iron(II) in the presence of 0.1 mg/ml Salmon DNA. Consequently, DNA-Fe(III) was formed and the nitroxide EPR signal disappeared. The reaction kinetics were investigated by maintaining either CHD or Fe(II) in excess while the absorbance due to DNA-Fe(III) and the nitroxide spin-loss were monitored respectively (FIG. 6). Both the decay of the EPR signal and the appearance of the OD353nm obeyed pseudo 1st order kinetics from which the 2nd order reaction rate constant was calculated as 44 M^−1s^−1 or 33 M^−1s^−1 using the data from EPR or optical absorption, respectively.

V79 cells = assay: Cytotoxicity of the agents alone, clonogenic assay; format: cell-based, Chinese hamster; conditions: concentrations used: catalase 100 U/ml; SOD 100 μg/ml; DF 500 μM; nitroxides 5 mM
Description: For subsequent studies, the most lipophilic nitroxide, CHD, and the most hydrophilic one, TEMPOL, were chosen.
Chinese hamster V79 cells were grown in F12 medium supplemented with 10% fetal calf serum, penicillin, and streptomycin. Survival was assessed in all studies by the clonogenic assay. The plating efficiency range between 80-90%. Stock cultures of exponentially growing cells were trypsinized, rinsed, and plated (5×10^5 cells/dish) into a number of 100 mm petri dishes and incubated 16 h at 37° C. prior to experimental protocols. Cells were exposed for 1 h at 37° C. to either 0.5 mM hypoxanthine (HX)+0.05 U/ml of xanthine oxidase (XO) for varying lengths of time, or to H2O2 at different concentrations. To assess possible modulation in cytotoxicity, catalase, 100 U/ml; SOD, 100 μg/ml; DF, 500 μM; and 5 mM of each of the nitroxides from Table 1 were added to parallel cultures. CHD was prepared in a stock solution in ethanol and diluted into medium such that the final concentration was 5 mM. […] TEMPOL is water soluble and was prepared directly in tissue culture medium. […] Following treatment, cells were rinsed, trypsinized, counted, and plated for macroscopic colony formation. […] Plates were incubated 7 days, after which colonies were fixed with methanol/acetic acid, stained with crystal violet, and counted. Colonies containing >50 cells were scored. […]

kidneys of mice = assay: Post-irradiation protection after local kidney irradiation, weight gain and kidney histology; format: in vivo; conditions: 28 weeks
Description: This hypothesis has been tested in experiments where both kidneys of mice were locally irradiated with single, acute doses of radiation. […] At 28 weeks after irradiation, the animals were sacrificed, and histological analysis was performed on their kidneys to assess damage.

C3H mice [8] = assay: Protection of mice against whole body radiation, 30 day survival; format: in vivo
Description: Controls were given saline.
Controls were given saline. Survival was recorded 30 days after exposure to radiation. The LD50(30) refers to that dose of radiation at which 50% of the mice survived 30 days after exposure.

[9] = tested on: Chinese hamster V79 cells; assay: In vitro protection against ionizing radiation, clonogenic survival; format: cell-based; conditions: 100 mM TEMPOL 10 min prior to irradiation
[10] = comparison value for native SOD; cited from earlier work

CC(=O)N(O)CCCCCNC(=O)CCC(=O)N(O)CCCCCNC(=O)CCC(=O)N(O)CCCCCN [DF, Desferrioxamine, reference compound]
protection against H2O2 cytotoxicity under hypoxic conditions [1]: complete protection | cell survival / protection from HX/XO [2]: complete protection | protection from HX/XO, DF added simultaneously ([2]; DF addition simultaneously with HX/XO (data not shown)): only partial protection

CCC1(C)OC(C)(C)CN1[O] (centres unmarked) [OXANO, 2-ethyl-2,5,5-trimethyl-3-oxazolidine-1-oxyl]
Steady state EPR signal (%) [3]: 50% | Partition coefficient [4]: 10 | kR′RNO + O2 [5]: 1.1 × 10^3 M − 1^s − 1

CC1(C)CCCC(C)(C)N1[O] [TEMPO, 2,2,6,6-tetramethylpiperidine-1-oxyl]
Steady state EPR signal (%) [3]: 100% | effect of O2 on the EPR signal [3]: no effect | kR′RNO + O2 [5]: 1.3 × 10^6 M − 1^s − 1

CC1(C)CC(O)CC(C)(C)N1[O] [TEMPOL, 4-hydroxy-2,2,6,6-tetramethylpiperidine-1-oxyl]
toxicity on chronic oral administration (C3H mice [6]; >3 weeks): no apparent toxicity | reduction of weight compared to controls (C3H mice [6]; chronic oral administration (>3 weeks)): 12.5% | protection against H2O2 cytotoxicity [7]: fully protected; also recorded: complete protection | 2nd order reaction rate constant with DNA-Fe(II) (DNA-Fe(II)): 40 M⁻¹ s⁻¹ | cytotoxicity of agent alone (V79 cells): Neither catalase, SOD, DF, CHD, nor TEMPOL were cytotoxic alone | kidney histology, TEMPOL alone (kidneys of mice; no radiation): identical to a section from a kidney of a control animal | kidney histology, 24 Gy plus TEMPOL (kidneys of mice; single dose 24 Gy, oral TEMPOL two weeks post-irradiation): protection against glomerular sclerosis and tubular cell loss | Steady state EPR signal (%) [3]: 100% | effect of O2 on the EPR signal [3]: no effect | toxicity in irradiated mice (C3H mice [8]; 275 mg/kg intraperitoneally): no toxicity | increase of LD50(30) (C3H mice [8]; 275 mg/kg intraperitoneally 10 min prior to whole body radiation 3 Gy to 13 Gy, versus saline controls): approximately 25% | cell survival / protection from HX/XO [2]: fully protected | kR′RNO + O2 [5]: 3.4 × 10^5 M − 1^s − 1 | extent of protection against irradiation [9]: approximately 2.5 fold

SOD: superoxide dismutase (SOD), obtained from Sigma
cell survival / protection from HX/XO [2]: not altered | kcat of native SOD [10]: 2.3e+09 M⁻¹ s⁻¹

B1: catalase: catalase (CAT), enzyme that can convert H2O2 to H2O (protein, UniProt P00432 2-527, looked up)
Catalase: ADNRDPASDQMKHWKEQRAAQKPDVLTTGGGNPVGDKLNSLTVGPRGPLLVQDVVFTDEMAHFDRERIPERVVHAKGAGAFGYFEVTHDITRYSKAKVFEHIGKRTPIAVRFSTVAGESGSADTVRDPRGFAVKFYTEDGNWDLVGNNTPIFFIRDALLFPSFIHSQKRNPQTHLKDPDMVWDFWSLRPESLHQVSFLFSDRGIPDGHRHMNGYGSHTFKLVNANGEAVYCKFHYKTDQGIKNLSVEDAARLAHEDPDYGLRDLFNAIATGNYPSWTLYIQVMTFSEAEIFPFNPFDLTKVWPHGDYPLIPVGKLVLNRNPVNYFAEVEQLAFDPSNMPPGIEPSPDKMLQGRLFAYPDTHRHRLGPNYLQIPVNCPYRARVANYQRDGPMCMMDNQGGAPNYYPNSFSAPEHQPSALEHRTHFSGDVQRFNSANDDNVTQVRTFYLKVLNEEQRKRLCENIAGHLKDAQLFIQKKAVKNFSDVHPEYGSRIQALLDKYNEEKPKNAVHTYVQHGSHLSAREKANL
cell survival / protection from HX/XO [2]: complete protection
